# Laboratory results reported in patent US11723899B2, “ALK2 inhibitors for the treatment of anemia” (Incyte Corporation, priority 2020, dated 2023).
# Legend:
# [1] = Phase 1a single-dose, dose-escalation safety and tolerability study in healthy adult participants; type: in vivo, human; settings: single oral dose 10, 25, 50, 100 and 175 mg
# Text: A Phase 1a, double-blind, randomized, placebo-controlled, single-dose, dose-escalation and food-effect study is being conducted with 2-amino-N-(4-hydroxybicyclo-[2.2.2]octan-1-yl)-5-(4-((1R,5S)-3-(tetrahydro-2H-pyran-4-yl)-3-azabicyclo-[3.1.0]hexan-1-yl)phenyl)nicotinamide (“Compound A”) in order to assess the safety, tolerability, and pharmacokinetics (PK) of Compound A when administered orally as a single dose to healthy adult participants.
# Compound A has been administered as a single dose at the dose levels of 10 mg, 25 mg, 50 mg, 100 mg, and 175 mg once to 9 healthy participants at each dose level.
# [2] = 28-day repeat dose toxicity study in rats; type: in vivo
# Text: (§1) Iron parameters and liver functional tests will be monitored clinically.
# (§2) Potential increases in heart rate, skin/hair, and the gastrointestinal track will also be monitored clinically.
# [3] = 28-day repeat dose toxicity study in dogs; type: in vivo
# Text: as §1, §2
# [4] = test system: mouse adenine-induced chronic kidney disease model; test: Mouse adenine-induced chronic kidney disease (anemia) model; type: in vivo, male C57BL/6 mice
# Text: The anemia associated with chronic kidney disease has been associated with the hepatic hormone hepcidin (Akchurin et al., Am. J. Physiol. Renal Physiol., 2016). Therefore, reduction of hepcidin levels through inhibition of ALK2 would be a useful therapeutic strategy to combat this aspect of the disease. To test this hypothesis, a murine model of chronic kidney disease that also leads to anemia was used. Orally administered adenine metabolizes to 2,8-dihydroxyadenine, which crystalizes in the tubules of the kidney. Build-up of this metabolite causes kidney injury (nephropathy), inflammation, and subsequently anemia. Mice (typically male C57B/6 mice age 6-10 weeks) are administered adenine (maximum dose of 50 mg/kg QD) by oral gavage for 28 days. During this time, mice are monitored weekly for changes in kidney function and hematology. Anemia onset is tracked by blood draws to measure complete blood count (CBC), which includes red blood cell count, hemoglobin levels, and hematocrit. Drops in these blood parameters would be indicative of anemia. […] Changes in kidney function are detectable within 10 days of adenine administration (Jia et al., BMC Nephrology, 2013; Rahman et al., PLoS One, 2018), and are monitored by analysis of plasma levels of creatinine and blood urea nitrogen (BUN) (Rahman et al., PLoS One, 2018). Increases in plasma creatinine, plasma BUN, and urine protein (>2 fold) are indicative of kidney injury. Body weights are also monitored weekly as a sign of overall fitness.
# To investigate the ability of an ALK2 inhibitor to alleviate the anemia brought on by kidney injury, male C57BL/6 mice (Charles River Laboratories) were administered oral adenine (45 mg/kg QD) for 28 days. A cohort of mice were also administered vehicle solution to maintain a normal blood level baseline for comparison (n=10). Mice were monitored weekly for changes in blood parameters by CBC, and for changes in weight. Starting at 14 days post first administration of adenine, mice receiving adenine were dosed with either 30 mg/kg QD (n=8) or 100 mg/kg QD (n=9) Compound A, or vehicle control (n=10). Mice were dosed for 21 days, which includes […] after the cessation of adenine administration. Final analyses were performed one week after the last dose of Compound A, 42 days after adenine administration began. Shown in FIG. 1 are results from this experiment.
# A study was performed to investigate the effects of starting the dosing of Compound A later in kidney disease progression at the point when hepcidin levels increase, at […]. Male C57BL/6 mice were administered oral adenine (45 mg/kg QD) for 28 days. A cohort of mice were also administered vehicle solution to maintain a normal blood level baseline for comparison (n=8). Mice were monitored weekly for changes in blood parameters by CBC, and for changes in weight. The mice receiving adenine were dosed with either 30 mg/kg QD (n=8) or 100 mg/kg QD (n=8) Compound A, or vehicle control (n=8). Compound A dosing began at either 14 or 21 days after adenine administration began and continued for 21 days, followed by one more week until blood analysis. The dosing that began on day 14 was termed “prophylactic” as it began before the increase in hepcidin occurs. Dosing that began on day 21 was termed “concomitant” as the dosing coincided with hepcidin level increase. […] Overall, Compound A was able to improve the anemia arising in this model. […]
structure (smiles),measurement,setting,value
"Nc1ncc(-c2ccc([C@@]34C[C@@H]3CN(C3CCOCC3)C4)cc2)cc1C(=O)NC12CCC(O)(CC1)CC2 [Compound A, 2-amino-N-(4-hydroxybicyclo-[2.2.2]octan-1-yl)-5-(4-((1R,5S)-3-(tetrahydro-2H-pyran-4-yl)-3-azabicyclo-[3.1.0]hexan-1-yl)phenyl)nicotinamide]",severe adverse events (SAEs),[1]; 9 healthy participants per dose level,No severe adverse events (SAEs) have been observed
same,severity of adverse events (AEs),[1]; all dose levels,mild and self-limiting
same,findings at the no observed adverse effect level (NOAEL),[2]; at NOAEL,slight increases in iron staining in the liver with no associated increase in liver function tests (LFTs) or microscopic findings in the liver
same,liver findings at higher doses,[2]; doses above NOAEL,increases in serum alanine aminotransferase (ALT) and aspartate aminotransferase (AST) and microscopic findings in the liver
same,additional adverse findings considered related to inhibition of ALK3,"[2]; higher doses, species not given","mucosal hypertrophy and hyperplasia in the gastrointestinal tract with associated changes in the mesenteric lymph nodes, anagen phase arrest of hair follicles, and further alterations in iron metabolism"
same,findings at the no observed adverse effect level (NOAEL),"[3]; 28-day repeat dose, at NOAEL",slight increases in iron staining in the liver with no associated increase in liver function tests (LFTs) or microscopic findings in the liver
same,liver findings at higher doses,"[3]; 28-day repeat dose, doses above NOAEL",increases in serum alanine aminotransferase (ALT) and aspartate aminotransferase (AST) and microscopic findings in the liver
same,additional adverse findings considered related to inhibition of ALK3,"[3]; 28-day repeat dose, higher doses","mucosal hypertrophy and hyperplasia in the gastrointestinal tract with associated changes in the mesenteric lymph nodes, anagen phase arrest of hair follicles, and further alterations in iron metabolism"
same,heart rate,[3]; higher doses,increased heart rates
same,hemoglobin levels relative to normal range,"[4]; 100 mg/kg QD, prophylactic dosing (from day 14), FIG. 2",returned hemoglobin levels that are within the normal range
same,body weights,"[4]; 30 or 100 mg/kg QD for 21 days from day 14, vs adenine without Compound A, FIG. 1 right",increased weights
same,"hemoglobin levels, prophylactic dosing","[4]; 30 or 100 mg/kg QD for 21 days starting day 14 of adenine, FIG. 2 left",dose dependent increase in hemoglobin levels
same,"hemoglobin levels, concomitant dosing","[4]; 30 or 100 mg/kg QD for 21 days starting day 21 of adenine, FIG. 2 right",significant increases in hemoglobin levels that were dose dependent
same,hemoglobin (HGB) levels,"[4]; day 42, 30 or 100 mg/kg QD for 21 days starting 14 days after first adenine (45 mg/kg QD, 28 days), vs adenine + vehicle, FIG. 1 left",dose-dependently improved hemoglobin (HGB) levels
